Earlier results, collected in patent publication US20200095192A1, “BIODEGRADABLE DIETHANOLAMINE DERIVATIVE CHELATING AGENT AND PREPARATION PROCESS THEREOF” (PTT Global Chemical Public Company Limited, priority 2017, published 2020).
Like-named read-outs stand apart in the source and are kept apart here.

Columns and labels:
[1] = aluminium (Al^3+); previous disclosed chelating agent; cited from earlier work
[2] = barium (Ba^2+); previous disclosed chelating agent; cited from earlier work
[3] = calcium (Ca^2+); previous disclosed chelating agent; cited from earlier work
[4] = cadmium (Cd^2+); previous disclosed chelating agent; cited from earlier work
[5] = cobolt (Co^2+); previous disclosed chelating agent; cited from earlier work
[6] = copper (Cu2+); previous disclosed chelating agent; cited from earlier work
[7] = iron (Fe^2+); previous disclosed chelating agent; cited from earlier work
[8] = iron (Fe^3+); previous disclosed chelating agent; cited from earlier work
[9] = mercury (Hg^2+); previous disclosed chelating agent; cited from earlier work
[10] = magnesium (Mg^2+); previous disclosed chelating agent; cited from earlier work
[11] = manganese (Mn^2+); previous disclosed chelating agent; cited from earlier work
[12] = nickel (Ni^2+); previous disclosed chelating agent; cited from earlier work
[13] = tin (Pb^2+); previous disclosed chelating agent; cited from earlier work
[14] = strontium (Sr^2+); previous disclosed chelating agent; cited from earlier work
[15] = zinc (Zn^2+); previous disclosed chelating agent; cited from earlier work

SMILES | stability constant [1] | stability constant [2] | stability constant [3] | stability constant [4] | stability constant [5] | stability constant [6] | stability constant [7] | stability constant [8] | stability constant [9] | stability constant [10] | stability constant [11] | stability constant [12] | stability constant [13] | stability constant [14] | stability constant [15]
O=C(O)CN(CCO)CC(=O)O [EDG, ethanol diglycine] | 7.7 | 3.4 | 4.7 | 7.4 | 8.0 | 11.8 | 13.4 | 21.6 | 19.8 | 6.2 | 10.0 | 18.2 | 13.6 | 5.2 | 15.2
O=C(O)CN(CCN(CC(=O)O)CC(=O)O)CC(=O)O [EDTA, ethylenediamineteraacetic acid] | 16.4 | 7.9 | 10.7 | 16.5 | 16.5 | 18.8 | 14.3 | 25.1 | 21.5 | 8.8 | 13.9 | 18.4 | 18.0 | 8.7 | 16.5
O=C(O)CC[C@@H](C(=O)O)N(CC(=O)O)CC(=O)O [GLDA, glutamic acid N,N-diacetic acid] | 12.2 | 3.5 | 5.9 | 9.1 | 10.0 | 13.1 | 8.7 | 11.7 | 14.3 | 5.2 | 7.6 | 10.9 | 10.5 | 4.1 | 10.0
O=C(O)CN(CC(=O)O)CC(=O)O [NTA, nitrilotriacetic acid] | 11.4 | 4.8 | 6.4 | 9.8 | 10.4 | 13.0 | 8.9 | 15.9 | 14.3 | 5.5 | 7.5 | 11.5 | 11.5 | 5.0 | 10.7
